Assay results from patent EP0814162A2 (priority 1996, dated 1997).

Assays:
[1] = test system: hla-lacZ fusion; assay: β-galactosidase chemiluminescent reporter assay of the chromosomal hla-lacZ fusion (hla expression); assay type: cell-based, S. aureus Wood 46-3; conditions: for influence on hla expression (in words): subinhibitory concentrations of antibiotics
[2] = test system: hla mRNA; assay: Northern blot analysis with intragenic hla probe; conditions: 0.5 µg/ml methicillin versus without antibiotic
[3] = mouse model; cited from earlier work
[4] = test system: α-toxin; conditions: in vitro; cited from earlier work

Structure (SMILES) | influence on hla expression (in words) [1] | further results
[Cl-].[Na+] [NaCl, sodium chloride] | – | β-galactosidase production ([1]; 0.8 M NaCl in LB broth, postexponential): 7800 RLU; effect on hla expression (in words) ([1]; NaCl above 1.6 M): inhibitory
Cc1onc(-c2ccccc2)c1C(=O)N[C@@H]1C(=O)N2[C@@H]1SC(C)(C)[C@@H]2C(=O)O [Oxacillin] | dramatically increased | –
COc1cccc(OC)c1C(=O)N[C@@H]1C(=O)N2[C@@H]1SC(C)(C)[C@@H]2C(=O)O [Methicillin] | dramatically increased | amount of hla mRNA detected by Northern hybridization [2]: greater amount of hla mRNA; increase of the β-galactosidase activity compared to medium without antibiotic ([1]; quarter of the MIC, postexponential phase): sixfold increase
COc1cc(Cc2cnc(N)nc2N)cc(OC)c1OC [Trimethoprim] | weak stimulatary effect | –
CCOc1ccc2ccccc2c1C(=O)N[C@@H]1C(=O)N2[C@@H]1SC(C)(C)[C@@H]2C(=O)O [nafcillin] | – | lethal activity of broth filtrates [3]: increases; α-toxin production [4]: induces
C[C@@H]1O[C@@H]1P(=O)(O)O [Fosfomycin] | weak stimulatary effect | –
CN[C@H](CC(C)C)C(=O)N[C@H]1C(=O)N[C@@H](CC(N)=O)C(=O)N[C@H]2C(=O)N[C@H]3C(=O)N[C@H](C(=O)N[C@H](C(=O)O)c4cc(O)cc(O)c4-c4cc3ccc4O)[C@H](O)c3ccc(c(Cl)c3)Oc3cc2cc(c3O[C@@H]2O[C@H](CO)[C@@H](O)[C@H](O)[C@H]2O[C@H]2C[C@](C)(N)[C@H](O)[C@H](C)O2)Oc2ccc(cc2Cl)[C@H]1O [Vancomycin] | weak stimulatary effect | –
CC[C@H]1OC(=O)[C@H](C)[C@@H](O[C@H]2C[C@@](C)(OC)[C@@H](O)[C@H](C)O2)[C@H](C)[C@@H](O[C@@H]2O[C@H](C)C[C@H](N(C)C)[C@H]2O)[C@](C)(O)C[C@@H](C)C(=O)[C@H](C)[C@@H](O)[C@]1(C)O [Erythromycin] | repressed | –
